Consider 60 molecules from patent US20160100579A1, “NEMATICIDAL N-(2-SUBSTITUTED 2-PHENYLETHYL)CARBOXAMIDES AND N-(2-SUBSTITUTED 2-PHENYLETHYL)-THIOCARBOXAMIDES” (priority 2013, published 2016).

This series can be described thus: Measurement of log P values by HPLC on reversed phase columns (EEC directive 79/831 Annex V.A8; methods [a] pH 2.3, [b] pH 2.7, [c] pH 7.8). It counts as physicochemical. The protocol:
Measurement of log P-values:
Measurement of log P values was performed according EEC directive 79/831 Annex V.A8 by HPLC (High Performance Liquid Chromatography) on reversed phase columns with the following methods:
^[a] Measurement was done at pH 2.3 with 0.1% phosphoric acid and acetonitrile as eluent with a linear gradient from 10% acetonitrile to 95% acetonitrile.
^[b] measurement of LC-MS was done at pH 2.7 with 0.1% formic acid in water and with acetonitrile (contains 0.1% formic acid) as eluent with a linear gradient from 10% acetonitrile to 95% acetonitrile.
^[c] Measurement with LC-MS was done at pH 7.8 with 0.001 molar ammonium hydrogen carbonate solution in water as eluent with a linear gradient from 10% acetonitrile to 95% acetonitrile.
Calibration was done with not branched alkan2-ones (with 3 to 16 carbon atoms) with known log P-values (measurement of log P values using retention times with linear interpolation between successive alkanones).. lambda-maX-values were determined using UV-spectra from 200 nm to 400 nm and the peak values of the chromatographic signals.

Where [1] appears, read: method [b]: LC-MS, pH 2.7, 0.1% formic acid in water / acetonitrile.
The mark [2] stands for this setting: method [c]: LC-MS, pH 7.8, 0.001 molar ammonium hydrogen carbonate / acetonitrile.
The mark [3] stands for this setting: method [b]: LC-MS at pH 2.7, 0.1% formic acid in water / acetonitrile.
Where [4] appears, read: method [c]: LC-MS at pH 7.8, 0.001 molar ammonium hydrogen carbonate in water / acetonitrile.

Regarding `COC(CNC(=O)c1cn(C)nc1C(F)F)c1ccccc1` (stereo not drawn) [Compound 16], under setting [1], the logP is 1.93^[b].
In the case of `COC(CNC(=O)c1c(C(F)F)nn(C)c1Cl)c1cc(Cl)cc(Cl)c1` (stereo not drawn) [Compound 40], the logP under setting [1] is 3.55^[b].
On to `COC(CNC(=O)c1c(C(F)F)nn(C)c1F)c1cc(Cl)cc(Cl)c1` (stereo not drawn) [Compound 41], for which the logP under setting [1] is 3.33^[b].
Turning to `COC(c1cc(Cl)cc(Cl)c1)C(C)NC(=O)c1c(C(F)F)nn(C)c1Cl` (stereo not drawn) [Compound 42], the logP under setting [1] was 3.92^[b].
On to `COC(c1cc(Cl)cc(Cl)c1)C(C)NC(=O)c1c(C(F)F)nn(C)c1F` (stereo not drawn) [Compound 43], for which the logP under setting [1] is 3.70^[b].
As to `COC(CNC(=O)c1c(C(F)F)nn(C)c1Cl)c1ccc(Cl)cc1Cl` (stereo not drawn) [Compound 44], the logP under setting [1] was 3.48^[b].
For `COC(CNC(=O)c1c(C(F)F)nn(C)c1F)c1ccc(Cl)cc1Cl` (stereo not drawn) [Compound 45], under setting [1], the logP is 3.25^[b].
In the case of `CCOC(c1ccc(Cl)cc1Cl)C(C)NC(=O)c1c(C(F)F)nn(C)c1Cl` (stereo not drawn) [Compound 46], the logP under setting [1] is 4.46^[b].
Same read-out and setting: in the case of `CCOC(c1ccc(Cl)cc1Cl)C(C)NC(=O)c1c(C(F)F)nn(C)c1F` (stereo not drawn) [Compound 47] it was 4.20^[b]; in that of `CCC(NC(=O)c1c(C(F)F)nn(C)c1Cl)C(OC)c1ccc(Cl)cc1Cl` (stereo not drawn) [Compound 48], 4.18^[b].
The same measure, in the same setting: in the case of `CCC(NC(=O)c1c(C(F)F)nn(C)c1F)C(OC)c1ccc(Cl)cc1Cl` (stereo not drawn) [Compound 49] it was 3.94^[b]; in that of `COC(c1ccc(Cl)cc1Cl)C1(NC(=O)c2c(C(F)F)nn(C)c2Cl)CC1` (stereo not drawn) [Compound 50], 3.70^[b].
Regarding `COC(c1ccc(Cl)cc1Cl)C1(NC(=O)c2c(C(F)F)nn(C)c2F)CC1` (stereo not drawn) [Compound 51], the logP under setting [1] is 3.46^[b].
For the molecule `CCn1nc(C)c(C)c1C(=O)NC(C)C(OC)c1ccccc1` (stereo not drawn) [Compound 55], the logP under setting [1] is 2.71^[b].
As to `COC(c1ccc(Cl)cc1)C(C)NC(=O)c1snc(Cl)c1Cl` (stereo not drawn) [Compound 61], the logP under setting [1] is 4.34^[b].
As for `COC(c1ccc(Cl)cc1)C(C)NC(=O)c1ccsc1` (stereo not drawn) [Compound 62], under setting [1], the logP was 2.84^[b].
Consider `COC(CNC(=O)c1c(F)cccc1F)c1ccc(Cl)cc1` (stereo not drawn) [Compound 72], for which the logP is 2.81^[b] under setting [1] and 2.79^[c]; under setting [2].
As to `COC(c1ccc(Cl)cc1Cl)C(C)(C)NC(=O)c1ccccc1F` (stereo not drawn) [Compound 74], the logP is 4.80^[b] under setting [1] and 4.77^[c]; under setting [2].
Regarding `COC(c1ccc(Cl)cc1Cl)C(C)(C)NC(=O)c1ccccc1Cl` (stereo not drawn) [Compound 75], the logP runs as follows: under setting [1], 4.59^[b]; under setting [2], 4.54^[c];.
In the same order, the values of `COC(c1ccc(Cl)cc1Cl)C(C)(C)NC(=O)c1ccccc1C(F)(F)F` (stereo not drawn) [Compound 76] are 4.68^[b] and 4.62^[c];.
On to `COC(c1ccc(Cl)cc1Cl)C(C)(C)NC(=O)c1c(F)cccc1F` (stereo not drawn) [Compound 77], for which the logP was 4.29^[b] under setting [1] and 4.24^[c]; under setting [2].
Turning to `COC(c1ccc(Cl)cc1Cl)C(C)(C)NC(=O)c1sccc1Cl` (stereo not drawn) [Compound 78], the logP reads like this: under setting [1], 5.34^[b]; under setting [2], 5.31^[c];.
On to `COC(c1ccc(Cl)cc1Cl)C(C)(C)NC(=O)c1occc1Br` (stereo not drawn) [Compound 80], for which the logP by setting is: under setting [1], 4.59^[b]; under setting [2], 4.37^[c];.
The corresponding values for `COC(c1ccc(Cl)cc1)C(C)(C)NC(=O)c1cccnc1Cl` (stereo not drawn) [Compound 81] are 3.24^[b] and 3.23^[c];.
As for `COC(c1ccc(Cl)cc1)C(C)(C)NC(=O)c1c(F)cccc1F` (stereo not drawn) [Compound 82], the logP is, setting by setting: under setting [1], 3.78^[b]; under setting [2], 3.79^[c];.
Consider `COC(c1ccc(Cl)cc1)C(C)(C)NC(=O)c1ccccc1F` (stereo not drawn) [Compound 83], for which the logP under setting [1] is 4.24^[b] and the logP under setting [2] is 3.99^[c];.
For `COC(c1ccc(Cl)cc1)C(C)(C)NC(=O)c1ccccc1Cl` (stereo not drawn) [Compound 84], the logP is, setting by setting: under setting [1], 4.12^[b]; under setting [2], 3.87^[c];.
Consider `COC(c1ccc(Cl)cc1)C(C)(C)NC(=O)c1ccccc1C(F)(F)F` (stereo not drawn) [Compound 85], for which the logP is 4.25^[b] under setting [1] and 3.99^[c]; under setting [2].
The corresponding values for `COC(c1ccc(Cl)cc1)C(C)(C)NC(=O)c1sccc1Cl` (stereo not drawn) [Compound 86] are 4.72^[b] and 4.43^[c];.
Take `COC(c1ccc(Cl)cc1)C(C)(C)NC(=O)c1sccc1I` (stereo not drawn) [Compound 87]: the logP is 4.77^[b] under setting [1] and 4.47^[c]; under setting [2].
Regarding `CCC(NC(=O)c1cccnc1Cl)C(OC)c1ccc(Cl)cc1Cl` (stereo not drawn) [Compound 89], the logP under setting [1] is 3.33^[b].
As to `CCC(NC(=O)c1cccnc1C(F)F)C(OC)c1ccc(Cl)cc1Cl` (stereo not drawn) [Compound 90], under setting [1], the logP was 3.35^[b].
In the case of `CCC(NC(=O)c1cccnc1C(F)(F)F)C(OC)c1ccc(Cl)cc1Cl` (stereo not drawn) [Compound 91], the logP under setting [1] is 3.70^[b].
As for `COC(c1cc(Cl)cc(Cl)c1)C(C)NC(=O)c1cccnc1C(F)F` (stereo not drawn) [Compound 93], the logP under setting [1] was 2.03^[b].
In the case of `COC(c1cc(Cl)cc(Cl)c1)C(C)NC(=O)c1cccnc1Cl` (stereo not drawn) [Compound 94], under setting [1], the logP is 3.17^[b].
For the molecule `COC(c1cc(Cl)cc(Cl)c1)C(C)NC(=O)c1nccnc1C(F)(F)F` (stereo not drawn) [Compound 95], the logP under setting [1] was 3.74^[b].
Still for that read-out and setting: in the case of `COC(c1cc(Cl)cc(Cl)c1)C(C)NC(=O)c1cccnc1C(F)(F)F` (stereo not drawn) [Compound 96] it was 3.52^[b]; in that of `COC(c1ccc(Cl)cc1Cl)C1(NC(=O)c2cccnc2C(F)F)CC1` (stereo not drawn) [Compound 97], 3.06^[b].
`COC(CNC(=O)c1cccnc1C(F)F)c1ccc(Cl)cc1Cl` (stereo not drawn) [Compound 101]: the logP under setting [1] was 2.80^[b].
Turning to `COC(CNC(=O)c1cccnc1Cl)c1ccc(Cl)cc1Cl` (stereo not drawn) [Compound 102], under setting [1], the logP is 2.75^[b].
Regarding `COC(c1ccc(Cl)cc1Cl)C(C)NC(=O)c1c(C)c(C)nn1C(F)F` (stereo not drawn) [Compound 116], the “log P” value is, setting by setting: under setting [3], 3.97^[b]; under setting [4], 3.84^[c];.
On to `COC(CNC(=O)c1cccnc1C(F)F)c1cc(Cl)cc(Cl)c1` (stereo not drawn) [Compound 117], for which, under setting [3], the “log P” value was 2.88^[b].
Still for that read-out and setting: in the case of `COC(CNC(=O)c1cccnc1Cl)c1cc(Cl)cc(Cl)c1` (stereo not drawn) [Compound 118] it was 2.82^[b]; in that of `COC(CNC(=O)c1cccnc1C(F)(F)F)c1cc(Cl)cc(Cl)c1` (stereo not drawn) [Compound 119], 3.19^[b].
As for `COC(c1ccc(Cl)cc1)C(C)NC(=O)c1c(F)cccc1F` (stereo not drawn) [Compound 132, N-[1-(4-chlorophenyl)-1-methoxypropan-2-yl]-2,6-difluorobenzamide], where the note is “method [b]: LC-MS at pH 2.7, 0.1% formic acid in water / acetonitrile, read-out: log P”, the chromatographic logP was determined as 3.12.
In the case of `COC(c1ccc(Cl)cc1)C(C)NC(=O)c1ccccc1F` (stereo not drawn) [Compound 133], the “log P” value was 3.40^[b] under setting [3] and 3.44^[c]; under setting [4].
In the case of `COC(c1ccc(Cl)cc1)C(C)NC(=O)c1c(F)cccc1C(F)(F)F` (stereo not drawn) [Compound 134], the “log P” value was 3.65^[b] under setting [3] and 3.61^[c]; under setting [4].
Consider `COC(c1ccc(Cl)cc1)C(C)NC(=O)c1cccnc1Cl` (stereo not drawn) [Compound 135], for which the “log P” value under setting [3] was 2.65^[b] and the “log P” value under setting [4] was 2.62^[c];.
In the case of `COC(c1ccc(Cl)cc1)C(C)NC(=O)c1ccccc1I` (stereo not drawn) [Compound 137], the “log P” value was 3.44^[b] under setting [3] and 3.42^[c]; under setting [4].
In the same order, the values of `COC(c1ccccc1Cl)C(C)NC(=O)c1ccccc1[N+](=O)[O-]` (stereo not drawn) [Compound 138] are 2.82^[b] and 2.78^[c];.
Regarding `COC(c1ccc(Cl)cc1)C(C)NC(=O)c1ccccc1[N+](=O)[O-]` (stereo not drawn) [Compound 139], the “log P” value runs as follows: under setting [3], 2.83^[b]; under setting [4], 2.93^[c];.
For the molecule `COC(c1ccccc1Cl)C(C)NC(=O)c1ccccc1C(F)(F)F` (stereo not drawn) [Compound 145], the “log P” value is 3.45^[b] under setting [3] and 3.41^[c]; under setting [4].
The corresponding values for `COC(c1ccccc1Cl)C(C)NC(=O)c1ccccc1I` (stereo not drawn) [Compound 146] are 3.44^[b] and 3.40^[c];.
Regarding `COC(c1ccccc1Cl)C(C)NC(=O)c1ccccc1F` (stereo not drawn) [Compound 147], the “log P” value was 3.44^[b] under setting [3] and 3.42^[c]; under setting [4].
Turning to `COC(c1ccccc1Cl)C(C)NC(=O)c1ccccc1C` (stereo not drawn) [Compound 148], the “log P” value was 3.26^[b] under setting [3] and 3.23^[c]; under setting [4].
As for `COC(c1ccc(Cl)cc1Cl)C1(NC(=O)c2c(F)cccc2C(F)(F)F)CC1` (stereo not drawn) [Compound 149], the “log P” value was 4.00^[b] under setting [3] and 3.95^[c]; under setting [4].
Consider `COC(c1ccc(Cl)cc1Cl)C1(NC(=O)c2c(F)cccc2F)CC1` (stereo not drawn) [Compound 150], for which the “log P” value is 3.57^[b] under setting [3] and 3.53^[c]; under setting [4].
On to `COC(c1ccc(Cl)cc1Cl)C1(NC(=O)c2ccccc2Br)CC1` (stereo not drawn) [Compound 151], for which the “log P” value runs as follows: under setting [3], 3.82^[b]; under setting [4], 3.76^[c];.
For the molecule `COC(c1ccc(Cl)cc1Cl)C1(NC(=O)c2ccccc2I)CC1` (stereo not drawn) [Compound 152], the “log P” value was 3.92^[b] under setting [3] and 3.88^[c]; under setting [4].
Consider `COC(c1ccc(Cl)cc1Cl)C1(NC(=O)c2ccccc2C)CC1` (stereo not drawn) [Compound 153], for which the “log P” value runs as follows: under setting [3], 3.75^[b]; under setting [4], 3.72^[c];.
